Data taken from patent US9902709B2, “Polysubstituted pyridine compound, preparation method, use and pharmaceutical composition” (PEKING UNIVERSITY FOUNDER GROUP CO., LTD., priority 2014, dated 2018).

What was measured:
[1] = test system: human renal cancer 786-O transplantation; experiment: Effect on tumor weight of human renal cancer 786-O transplantation nude mice (Comparative Experimental Example 1); format: in vivo; conditions: QD × 14 days, sorafenib as p-toluenesulfonate, FD-1210005 free form
Text: Comparative Experimental Example 1
The well grown 786-O solid tumor was cut into a mass of an average volume of about 1 mm^3 under aseptic conditions, and was used to inoculate nude mouse at axillary cavity of right forelimb subcutaneously via a trocar. The tumor growth state was observed regularly until the tumor grew into a volume of 250˜550 mm^3.
Animals with tumors of a too large or too small volume and an irregular shape were discarded. Tumor-bearing mice with a tumor volume of 250˜550 mm^3 in a good state were selected, 48 mice in total, and were divided into 6 groups, which were 1 solvent control group, 3 positive control groups, and 2 test sample groups. Both the positive control group and the test sample group were administered intragastrically once a day; the solvent control group was administered with 12.5% ethanol & 12.5% water solution of polyoxyethylene castor oil once a day; intragastrical volume was 10 mL/kg.
In the period of administration, tumor diameter was measured twice every week, tumor volume was calculated, and animal body weight was recorded. Animal state was observed when administered, and abnormal state was recorded.
Animal was sacrificed with CO2, and tumor was peeled off, weighed, and photographed. Animal was subjected to gross anatomy, and organs were observed by eyes to find if they were normal or not.
Observation Indexes: Tumor weight inhibiting rate (IR)=(WC−WT)/WC
Wherein WC and WT represented the average tumor weight of solvent control group and the average tumor weight of drug administration group, respectively.
Experimental data was subjected to calculation and relevant statistic processing by Microsoft Office Excel 2003 software. Unless otherwise specified, data was represented as Mean±Standard Error (Mean±S.E), and t-test is used in the comparison between two groups.

[2] = biological target: VEGFR2 (Homo sapiens (Human), UniProt P35968); experiment: Inhibitory activity of VEGFR2 kinase (HTRF KinEASE-TK kit); format: biochemical
VEGFR2, sequence (P35968 20-1356): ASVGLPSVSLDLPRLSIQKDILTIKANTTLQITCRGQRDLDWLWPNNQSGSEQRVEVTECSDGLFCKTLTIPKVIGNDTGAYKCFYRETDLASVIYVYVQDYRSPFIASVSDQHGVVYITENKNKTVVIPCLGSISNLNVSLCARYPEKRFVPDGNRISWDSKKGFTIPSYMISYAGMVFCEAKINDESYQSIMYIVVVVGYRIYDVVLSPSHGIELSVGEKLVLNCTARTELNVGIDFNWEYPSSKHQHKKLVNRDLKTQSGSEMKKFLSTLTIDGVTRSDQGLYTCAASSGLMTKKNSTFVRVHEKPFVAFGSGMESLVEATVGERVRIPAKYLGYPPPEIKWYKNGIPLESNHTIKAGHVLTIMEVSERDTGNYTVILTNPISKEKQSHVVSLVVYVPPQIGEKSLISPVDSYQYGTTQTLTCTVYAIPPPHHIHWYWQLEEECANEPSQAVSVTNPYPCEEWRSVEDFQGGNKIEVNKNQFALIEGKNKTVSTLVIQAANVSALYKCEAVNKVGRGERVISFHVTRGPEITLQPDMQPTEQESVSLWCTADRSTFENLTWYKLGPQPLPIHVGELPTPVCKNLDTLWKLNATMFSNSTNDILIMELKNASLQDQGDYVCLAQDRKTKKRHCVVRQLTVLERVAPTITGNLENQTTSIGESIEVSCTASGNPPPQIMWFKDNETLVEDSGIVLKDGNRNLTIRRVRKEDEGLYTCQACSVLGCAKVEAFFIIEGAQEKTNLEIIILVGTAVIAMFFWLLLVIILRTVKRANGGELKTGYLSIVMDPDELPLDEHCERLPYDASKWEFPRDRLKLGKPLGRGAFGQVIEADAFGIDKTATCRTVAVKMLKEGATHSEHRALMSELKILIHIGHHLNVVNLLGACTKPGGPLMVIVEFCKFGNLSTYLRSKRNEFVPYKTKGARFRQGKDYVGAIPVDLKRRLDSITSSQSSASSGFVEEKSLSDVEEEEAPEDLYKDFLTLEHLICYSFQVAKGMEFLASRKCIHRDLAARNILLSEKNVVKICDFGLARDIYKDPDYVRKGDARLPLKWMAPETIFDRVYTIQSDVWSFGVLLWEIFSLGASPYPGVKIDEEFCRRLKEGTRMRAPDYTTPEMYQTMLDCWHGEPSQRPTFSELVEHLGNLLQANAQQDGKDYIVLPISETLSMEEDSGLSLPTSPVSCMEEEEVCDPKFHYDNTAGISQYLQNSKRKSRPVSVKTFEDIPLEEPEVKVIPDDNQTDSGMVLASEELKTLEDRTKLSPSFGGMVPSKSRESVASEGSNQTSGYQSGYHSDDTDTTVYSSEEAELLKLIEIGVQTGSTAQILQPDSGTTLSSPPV

[3] = test system: HCT116 xenograft; experiment: Tumor-inhibiting effect on HCT116 xenograft tumor-bearing mice (Experimental Example 5); format: in vivo, Balb/c nude mice; conditions: QD × 14 day, free form; for TGI: from tumor weight
Procedure: HCT116 cells were cultured in McCoy's 5a culture medium containing inactivated 10% fetal bovine serum, 100 Um′ penicillin and 100 μg/ml streptomycin as well as 2 mM glutamine in an incubator at 37° C., 5% CO2. During cell culture, the initial concentration was 5×10^5 cells/ml, and the cells were separated into other bottles every 3 to 4 days when the cells reached a cell density of 100%. The tumor cells in logarithmic growth phase were used in tumor inoculation in vivo.
Balb/c nude mice was inoculated subcutaneously at right lateral thorax with HCT116 tumor cells re-suspended in PBS at 1.0×10^7 cells/0.1 ml. When the tumor grew into a volume of 800 mm^3, the animal was sacrificed and under aseptic conditions, tumor was peeled off. The well grown tumor tissues were cut into tumor mass with a size of 2×2×2 mm^3, and then were used to inoculate animal at right lateral thorax subcutaneously. 60 animals were inoculated. When the tumor grew into a volume of about 110 mm^3, the mice were grouped and administered, 5 groups in total, 8 mice per group.
The volume of tumor was measured by using Vernier caliper twice a week. The long diameter and short diameter of tumor were measured. The volume was calculated by the formula: volume=0.5× long diameter×short diameter^2. After the final measurement, the animal was sacrificed and the tumor was peeled off and weighed. Based on the tumor weight, tumor growth-inhibiting rate (TGI) was calculated. […] When the assay was finished, the experimental animal was subjected to euthanasia.

Row | IC50 ([2]; ATP 5 μM, 20 minutes, room temperature) [nM] | inhibitory activity as fold of that of Comparative compound 2 ([2]; VEGFR2 kinase) [fold] | inhibitory activity as fold of that of Sorafenib ([2]; VEGFR2 kinase) [fold] | IC50 value as fold of that of Comparative compound 2 ([2]; VEGFR2 kinase, ratio of IC50) [fold] | IC50 value as fold of that of Sorafenib (free base) ([2]; VEGFR2 kinase, ratio of IC50) [fold] | Compound | Tumor weight Mean ± S.E ([1]; 20 mg/kg po) [g] | Tumor-inhibiting rate ([1]; 20 mg/kg po) [%] | Tumor weight Mean ± S.E ([1]; 60 mg/kg po) [g] | Tumor-inhibiting rate ([1]; 60 mg/kg po) [%] | Tumor weight (D27) Mean ± S.E ([3]; 10 mg/kg po) [g] | TGI ([3]; 10 mg/kg po) [%] | Tumor weight (D27) Mean ± S.E ([3]; 20 mg/kg po) [g] | TGI ([3]; 20 mg/kg po) [%] | Tumor weight (D27) Mean ± S.E ([3]; 40 mg/kg po) [g] | TGI ([3]; 40 mg/kg po) [%] | TGI ([3]; 40 mg/kg po, listed as FD-2013018) [%]
1 |  |  |  |  |  | CNC(=O)c1cc(Oc2ccc(NC(=O)Nc3ccc(Cl)c(C(F)(F)F)c3)cc2)ccn1 [Comparative example 1, Sorafenib, reference compound] | 0.5239 ± 0.1038 | 44.01 | 0.4407 ± 0.0581 | 52.89 |  |  |  |  |  |  | 
2 | 55.5 | 3.4 | 1.61 | 0.34 | 0.62 | Cn1cc(-c2nccc(Oc3ccc(NC(=O)Nc4ccc(Cl)c(C(F)(F)F)c4)cc3)c2Cl)cn1 [Example 2, 1-(4-chloro-3-(trifluoromethyl)phenyl)-3-(4-(3-chloro-2-(1-methyl-pyrazol-4-yl)-pyridin-4-yl-oxy)phenyl)urea] |  |  |  |  | 0.153 ± 0.078 | 84.1 | 0.104 ± 0.035 | 89.1 | 0.077 ± 0.043 | 92 | 92.0
